For 7 molecules, Ki results are on record in patent US8906917B2, “Pyrimidine cyclohexyl glucocorticoid receptor modulators” (Corcept Therapeutics, Inc., priority 2011, dated 2014).

Assay [1] addresses T1, Human Recombinant Glucocorticoid Receptor (Homo sapiens, UniProt P04150).
T1 construct: This GR was a full-length steroid hormone receptor; host or cells: recombinant baculovirus-infected insect cells
T1 sequence (P04150 1-777): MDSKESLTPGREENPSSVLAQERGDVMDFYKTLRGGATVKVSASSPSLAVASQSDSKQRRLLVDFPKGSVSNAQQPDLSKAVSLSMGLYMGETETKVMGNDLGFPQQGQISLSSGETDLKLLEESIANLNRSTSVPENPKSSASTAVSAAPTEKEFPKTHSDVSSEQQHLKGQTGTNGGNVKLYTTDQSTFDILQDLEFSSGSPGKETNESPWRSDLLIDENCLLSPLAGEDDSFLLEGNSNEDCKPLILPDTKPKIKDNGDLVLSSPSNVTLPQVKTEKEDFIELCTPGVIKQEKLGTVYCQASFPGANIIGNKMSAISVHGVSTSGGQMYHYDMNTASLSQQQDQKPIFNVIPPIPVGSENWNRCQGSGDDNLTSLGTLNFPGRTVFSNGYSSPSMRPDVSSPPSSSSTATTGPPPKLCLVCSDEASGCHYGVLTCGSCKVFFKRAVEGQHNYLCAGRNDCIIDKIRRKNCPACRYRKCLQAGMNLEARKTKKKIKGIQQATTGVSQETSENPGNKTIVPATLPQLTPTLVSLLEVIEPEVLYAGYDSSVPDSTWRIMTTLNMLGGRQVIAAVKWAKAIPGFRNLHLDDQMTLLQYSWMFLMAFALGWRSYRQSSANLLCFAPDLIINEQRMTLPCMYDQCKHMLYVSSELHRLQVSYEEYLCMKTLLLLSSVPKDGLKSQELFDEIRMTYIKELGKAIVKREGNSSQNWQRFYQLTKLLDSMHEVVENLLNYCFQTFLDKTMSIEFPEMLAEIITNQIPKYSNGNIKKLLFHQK
As to the kind of experiment: Glucocorticoid receptor binding displacement assay with 3H-dexamethasone. The conditions noted are these: displacement of 2.5 nM 3H-dexamethasone, 2.5 hrs at 4° C.; Ki from IC50 by Cheng-Prusoff; read-out: GR Binding Ki. As for the experimental part: Binding protocol: Compounds were tested in a binding displacement assay using human recombinant glucocorticoid receptor with ^3H-dexamethasone as the ligand. The source of the receptor was recombinant baculovirus-infected insect cells. This GR was a full-length steroid hormone receptor likely to be associated with heat-shock and other endogenous proteins.
For the IC50 determinations, test compounds were tested at 6 concentrations in duplicate. Test compounds were diluted from 10 mM stock in 100% DMSO. The tested solutions were prepared at 2× final assay concentration in 2% DMSO/assay buffer.
All reagents and the assay plate were kept on ice during the addition of reagents. The reagents were added to wells of a v-bottomed polypropylene plate in the following order: 25 μl of 10 nM 3H-dexamethasone solution, 50 μl of TB/NSB/compound solution and 25 μl of 2 nM GR solution. After the additions, the incubation mixture was mixed and incubated for 2.5 hrs at 4° C.
Alter 2.5 hrs incubation, unbound counts were removed with dextran coated charcoal (DCC) as follows: 15 μl of DCC solution (10% DCC in assay buffer) was added to all wells and mixed (total volume 115 μl). The plate was centrifuged at 4000 rpm for 10 minutes at 4° C. 75 μl of the supernatants was carefully pipetted into an optiplate. 150 μl of scintillation cocktail were added (Microscint-40, Perkin Elmer). The plate was vigorously shaken for approx. 10 minutes and counted on Topcount.
The IC50 values were converted to Ki (the inhibition constant) using the Cheng-Prusoff equation.
Reagents: Assay buffer: 10 mM potassium phosphate buffer pH 7.6 containing 5 mM DTT, 10 mM sodium molybdate, 100 μM EDTA and 0.1% BSA.

The target of assay [2] is T2, glucocorticoid receptors (endogenous) in SW1353/MMTV-5 cells (Homo sapiens, UniProt P04150).
T2 construct: contains endogenous glucocorticoid receptors; endogenous in cells; host or cells: SW1353/MMTV-5 (human chondrosarcoma, stably transfected with pMAMneo-Luc reporter)
T2 sequence (P04150 1-777): T1 sequence (P04150 1-777)
As to the kind of experiment: GR functional assay using SW1353/MMTV-5 cells (MMTV-GRE luciferase reporter). In kind it is cell-based. Here is the method: SW1353/MMTV-5 is an adherent human chondrosarcoma cell line that contains endogenous glucocorticoid receptors. It was transacted with a plasmid (pMAMneo-Luc) encoding firefly luciferase located behind a glucocorticoid-responsive element (GRE) derived from a viral promoter (long terminal repeat of mouse mammary tumor virus). A stable cell line SW1353/MMTV-5 was selected with geneticin, which was required to maintain this plasmid.
SW1353/MMTV-5 cells were distributed in 96-well plates and incubated in medium (without geneticin) for 24 hrs.

With `O=c1[nH]c(=O)c(Cc2ccc(F)c(F)c2)c([C@H]2CC[C@H](c3ccccc3)CC2)[nH]1` [Compound 3w], the Ki (as a rule, the equilibrium dissociation constant of an inhibitor or competing ligand from its target) in assay [1] was more than 10 nM; in assay [2] it was 50 to 100 nM.
Turning to `COCCn1c(=O)[nH]c([C@H]2CC[C@H](c3ccccc3)CC2)c(Cc2cccc(C(F)(F)F)c2)c1=O` [Compound 13g, (E)-3-(2-Methoxy-ethyl)-6-(4-phenyl-cyclohexyl)-5-(3-trifluoromethyl-benzyl)-1H-pyrimidine-2,4-dione], the Ki in assay [1] is more than 10 nM; in assay [2], more than 100 nM.
In the same order, the values of `O=c1[nH]c(=O)c(Cc2ccccn2)c([C@H]2CC[C@H](c3ccccc3)CC2)[nH]1` [Compound 3p] are more than 10 nM and more than 100 nM.
Regarding `COc1ccccc1Cc1c(=O)[nH]c(=O)[nH]c1[C@H]1CC[C@H](c2ccccc2)CC1` [Compound 3u], the Ki in assay [1] was less than 5 nM; in assay [2], 50 to 100 nM.
Take `O=c1[nH]c([C@H]2CC[C@H](c3ccccc3)CC2)c(Cc2cccc(Cl)c2Cl)c(=O)n1CCCN1CCOCC1` [Compound 13c]: the Ki in assay [1] was more than 10 nM; in assay [2], more than 100 nM.
In the same order, the values of `O=c1[nH]c(=O)c(Cc2nccs2)c([C@H]2CC[C@H](c3ccccc3)CC2)[nH]1` [Compound 3o] are more than 10 nM and more than 100 nM.
Taken in the same sequence, the figures for `O=c1[nH]c(C2=CCC(c3ccccc3)CC2)c(Cc2ccccc2Cl)c(=O)[nH]1` (centres unmarked) [Compound 2c] were 5 to 10 nM and more than 100 nM.
